In US10150793B2, “Antagonists of CB1 receptor” (INSERM (Institut National de la Santé et de la Recherche …, priority 2011, dated 2018):

System: CHO cells
Assay: Study of metabolism in vitro in CHO cells, steroids in culture medium by GC/MS
Procedure, shortened: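 CHO-K1 cells were seeded at 25×10^4 cells/well in antibiotic-free DMEM-Glutamax with 10% FBS to assess metabolism of pregnenolone derivatives. Pregnenolone, allopregnanolone, epiallopregnanolone, testosterone and 5α-dihydrotestosterone in culture medium were extracted, purified and quantified by GC/MS.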

[1] = culture medium of treated CHO cells, 0 = concentrations below the detection limit
[2] = culture medium, pregnenolone 1 μM, 48 hours

CC(=O)[C@H]1CC[C@H]2[C@@H]3CC=C4C[C@@H](O)CC[C@]4(C)[C@H]3CC[C@]12C [Pregnenolone, 5-Pregnen-3β-ol-20-one]
DHEA [1]: 0.00 pg/mL
TESTO [1]: 0.00 pg/mL
ALLO steroid levels [2]: 3529.99 pg/mL
EPIALLO steroid levels [2]: 16963.84 pg/mL
PREG steroid levels [2]: 11440.66 pg/mL
THDOC steroid levels [2]: 77.47 pg/mL
